In PMC9960827, “Cloning and Characterization of Trypanosoma congolense and T. vivax Nucleoside Transporters Reveal the Potential of P1-Type Carriers for the Discovery of Broad-Spectrum Nucleoside-Based Therapeutics against Animal African Trypanosomiasis” (International Journal of Molecular Sciences, 2023):
Values joined by “and” are separate entries in the source; they are usually repeats but may differ in a detail not shown here. Equal entries are not always repeated. Where two headings read alike, the source gives them in different places.

Assays:
TcoAT1 = format: cell-based, Trypanosoma congolense; settings: for Ki: 0.05 µM [3H]-adenosine, 10 s, IC50 converted to Ki, read-out: Ki on the transport of [3H]-adenosine; for ΔG0: Gibbs free energy of binding, from Km or Ki; for δ(ΔG0): loss of Gibbs free energy of binding relative to the parent nucleoside
Description: (§1) The information for the T. congolense adenosine transporter (TcoAT1) and four putative T. vivax nucleoside transporters was obtained in the TritrypDB (tritrypdb.org/tritrypdb) genome database. Primers were designed to flank each gene upstream of the 5′ end (forward) and downstream of the 3′ end (reverse) as described (primer sequences in Supplementary Table S2). Following amplification from the genomic DNA of T. congolense or T. vivax, DNA for each extracted gene was ligated into the pNUS-HcN expression vector doubly digested with NdeI using the NEBuilder kit according to the manufacturer’s instructions (New England Biolabs). Construct was transformed into competent E. coli cells, and ligation was confirmed by restriction enzyme digestion of isolated plasmid DNA followed by Sanger sequencing (Source BioScience, Nottingham, UK). Confirmed plasmids were then transfected into L. mexicana cell line in which both NT1 and NT2 were doubly knocked out (SUPKO) and derived from L. mexicana Cas9 [64] as described. Clones grown in medium containing 50 μg/mL neomycin (G418) were collected for further confirmation by PCR with genomic DNA using a forward primer of the transporter gene and a reverse primer of the plasmid.
(§2) Uptake assays using radiolabeled trypanocides and/or nucleosides were carried out as described previously. Briefly, parasite cultures were harvested, washed twice in assay buffer (33 mM HEPES, 98 mM NaCl, 4.6 mM KCl, 0.5 mM CaCl2, 0.07 mM MgSO4, 5.8 mM NaH3PO4, 0.03 mM MgCl2, 23 mM NaHCO3, 14 mM D-glucose, pH 7.3), then resuspended and adjusted to a density of 1 × 10^8 cells/mL in assay buffer. The radiolabeled permeant in the presence or absence of different concentrations of potential inhibitors reconstituted in 100 μL assay buffer was deposited on top of 250 μL oil mix in microcentrifuge tubes; 1 × 10^7 parasites in 100 μL assay buffer were added to the tube and incubated for a pre-determined interval. The reaction was stopped by the addition of 1 mL of a high concentration of ice-cold unlabeled substrate in assay buffer (‘stop solution’) and centrifugation, or by immediate centrifugation at […] as appropriate. The microcentrifuge tubes were flash-frozen, and the bottom of each tube containing the cell pellet was cut off and transferred to a scintillation vial. Cell pellets were lysed in 2% SDS, after which scintillation fluid (Scintlogic U, Lablogic) was added, followed by overnight incubation in the dark. Scintillation was measured in a 300SL (Hidex) scintillation counter (Hidex). All the assays were conducted in triplicate and analysis was carried out using Microsoft Excel and GraphPad Prism. All kinetic parameters were obtained on at least 3 separate occasions.
(§3) The dose-dependent uptake assay allowed for the affinity of nucleoside analogs to different nucleoside transporters to be determined by measuring the extent to which the analogs compete with and inhibit the uptake of radiolabel adenosine. This allowed for the determination of biochemical parameters such as Km and Vmax through the application of the Michaelis–Menten equation V0 = Vmax([substrate]/([substrate] + Km)). The 50% Inhibitory Concentration (IC50) of the purines and pyrimidines and their analogs was determined from non-linear regression to sigmoid curves with variable slope (Prism 8), and the IC50 of the inhibitor and the Km of the labeled permeant were then used to calculate the inhibition constant (Ki) of the analogs through the Cheng–Prusoff equation: Ki = IC50/(1 + (L/Km)), where L denotes the radiolabel concentration. The calculated Ki was in turn used to determine the Gibbs free energy (ΔG^0) of the inhibitor–transporter interaction using the equation: ΔG^0 = -RTln(Ki), where R represents the gas constant and T symbolizes the absolute temperature in Kelvin [104].

TvxNT3 = TvxNT3 (Trypanosoma vivax, UniProt F9WV62); assay: cell-based; format: cell-based; settings: for ΔG0: Gibbs free energy of interaction, from Km or Ki; for δ(ΔG0): difference in ΔG0 relative to the parent purine (adenosine or inosine); for remaining activity at 100 µM: read-out: [3H]-adenosine uptake remaining in presence of inhibitor
Description: as §1, §2, §3

L. mexicana SUPKO+TcoAT1 = assay: microbe, parasite or virus in culture; format: cell-based, Leishmania mexicana; settings: for EC50: read-out: SUPKO+TcoAT1 EC50
Protocol: (§4) EC50 values were determined by plotting to an equation for a sigmoid curve with variable slope (GraphPad Prism 8). All values were the average of at least three independent determinations on different days.

L. mexicana SUPKO = assay: microbe, parasite or virus in culture; format: cell-based, Leishmania mexicana
Protocol: as §4

L. mexicana SUPKO+TvxNT3 = assay: microbe, parasite or virus in culture; format: cell-based, Leishmania mexicana; settings: for EC50: read-out: SUPKO+TvxNT3 EC50
Protocol: as §4

L. mexicana Cas9 = assay: Resazurin drug sensitivity assay, LmexCas9; format: cell-based, Leishmania mexicana; settings: read-out: LmexCas9 EC50
Protocol: as §4

[1] = biological target: T. b. brucei P1 (TbP1/NT2); settings: cited from earlier work; for Ki: T. b. brucei bloodstream forms, read-out: Tbb P1 Ki
[2] = biological target: T. congolense adenosine transporter; assay: [3H]-adenosine uptake and its inhibition in T. congolense IL3000 bloodstream forms; format: cell-based, Trypanosoma congolense; settings: for Ki: 0.05 µM [3H]-adenosine, 30 s, IC50 converted to Ki, read-out: Ki on the transport of [3H]-adenosine; for ΔG0, Gibbs free energy of interaction: calculated from Km or Ki; for Ki values fold higher than those for the purines: inhibition of adenosine uptake
Protocol: as §2, §3

[3] = Resistance Factor relative to SUPKO
[4] = resazurin, promastigotes, read-out: SUPKO EC50

Sequence of TvxNT3 (F9WV62 entry or part of it): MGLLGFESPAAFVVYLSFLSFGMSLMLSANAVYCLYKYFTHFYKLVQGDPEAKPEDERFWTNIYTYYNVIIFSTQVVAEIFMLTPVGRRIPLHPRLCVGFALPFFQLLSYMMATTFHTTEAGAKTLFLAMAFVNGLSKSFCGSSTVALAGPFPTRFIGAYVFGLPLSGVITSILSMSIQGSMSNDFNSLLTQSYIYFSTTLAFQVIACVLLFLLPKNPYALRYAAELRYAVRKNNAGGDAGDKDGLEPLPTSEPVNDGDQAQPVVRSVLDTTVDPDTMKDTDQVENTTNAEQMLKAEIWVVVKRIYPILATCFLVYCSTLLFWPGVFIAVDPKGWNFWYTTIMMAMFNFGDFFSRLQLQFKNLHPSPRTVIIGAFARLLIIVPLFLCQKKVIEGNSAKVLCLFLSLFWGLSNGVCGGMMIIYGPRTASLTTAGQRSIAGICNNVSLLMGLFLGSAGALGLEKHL

SMILES | Ki (TcoAT1) [µM] | ΔG0 (TcoAT1) [kcal/mol] | δ(ΔG0) (TcoAT1) | ΔG0 (TvxNT3) [kcal/mol] | δ(ΔG0) (TvxNT3) [kcal/mol] | further results
Nc1ccnc2c1ncn2[C@@H]1O[C@H](CO)[C@@H](O)[C@H]1O [1-deazaadenosine] | 1.03 ± 0.34 | -8.17 | 0.535 kcal/mol |  |  | 
Nc1ncnc2c1ncn2[C@H]1CC[C@@H](CO)O1 [2′,3′-dideoxyadenosine] | 51.9 ± 2.6 | -5.83 | 2.856 kcal/mol |  |  | 
OC[C@@H]1CC[C@H](n2cnc3c(O)ncnc32)O1 [2′,3′-dideoxyinosine] | 85.4 ± 7.1 | -5.54 | 2.99 kcal/mol |  |  | 
Nc1ncnc2c1ncn2[C@H]1C[C@H](O)[C@@H](CO)O1 [2′-deoxyadenosine] | 0.5 ± 0.07 | -8.6 | 0.105 kcal/mol | -8.15 | 0.167 | 
Nc1nccc2c1ncn2[C@@H]1O[C@H](CO)[C@@H](O)[C@H]1O [3-deazaadenosine] | 138 ± 37 | -5.26 | 3.44 kcal/mol and 3.435 kcal/mol |  |  | 
OC[C@H]1O[C@@H](n2cnc3c(O)nccc32)[C@H](O)[C@@H]1O [3-deazainosine] |  |  |  | -6.12 |  | 
C[C@H]1O[C@@H](n2cnc3c(N)ncnc32)[C@H](O)[C@@H]1O [5′-deoxyadenosine] | 0.45 ± 0.08 | -8.65 | 0.043 kcal/mol | -8.13 | 0.151 | 
OC[C@H]1O[C@@H](n2cnc3c(S)ncnc32)[C@H](O)[C@@H]1O [6-thioinosine] |  |  |  | -7.36 |  | 
Nc1ncnc2[nH]cnc12 [Adenine] | 761 ± 103 | -4.25 | 4.446 kcal/mol | -7.658 | -0.32 | Ki (TcoAT1; listed as ADE): 786 µM; δ(ΔG0) (TvxNT3; listed as adenine): 0.32 kcal/mol; remaining activity at 100 µM (TvxNT3): < 25%
COc1ncnc2c1ccn2[C@@H]1O[C@H](CO)[C@@H](O)[C@H]1O [CL4510, 6-methoxy-7-deazapurine riboside] | 226 ± 26 | -4.97 |  | -6.55 |  | SUPKO+TcoAT1 RF (SUPKO) (L. mexicana SUPKO+TcoAT1; [3]): 1.03; EC50 (L. mexicana SUPKO+TcoAT1; resazurin, promastigotes): 2.2 ± 0.03 µM; SUPKO RF (Cas9) (L. mexicana SUPKO; Resistance Factor = EC50(SUPKO)/EC50(Cas9)): 5.84; EC50 (L. mexicana SUPKO; [4]): 2.3 µM and 2.28 µM; SUPKO+TvxNT3 RF (SUPKO) (L. mexicana SUPKO+TvxNT3; [3]): 1.1; EC50 (L. mexicana SUPKO+TvxNT3; resazurin, promastigotes): 2.05 ± 0.04 µM; Ki (TvxNT3; 50 nM [3H]-adenosine, 90 s, IC50 converted to Ki, read-out: Ki on the transport of [3H]-adenosine): 16.1 ± 2.8 µM; EC50 (L. mexicana Cas9; resazurin, promastigotes): 0.39 ± 0.05 µM
Nc1ccn([C@@H]2O[C@H](CO)[C@@H](O)[C@H]2O)c(=O)n1 [Cytidine] | 1580 ± 69.2 | -3.82 | 4.878 kcal/mol |  |  | Ki [1]: > 250 µM; Ki [2]: 1180 ± 148 µM; ΔG0, Gibbs free energy of interaction [2]: -3.99 kcal/mol; Ki values fold higher than those for the purines [2]: > 90 fold
Nc1nc2c(ncn2[C@@H]2O[C@H](CO)[C@@H](O)[C@H]2O)c(=O)[nH]1 [Guanosine] | 0.8 ± 0.09 | -8.32 | 0.387 kcal/mol | -7.995 | 0.017 | Ki [1]: 1.8 ± 0.3 µM; Tbb P1 ΔG0 [1]: -7.82 kcal/mol; Ki [2]: 1.06 ± 0.07 µM; ΔG0, Gibbs free energy of interaction [2]: -8.15 kcal/mol; remaining activity at 100 µM (TvxNT3; 100 µM inhibitor, 50 nM [3H]-adenosine): < 25%
O=c1[nH]cnc2nc[nH]c12 [Hypoxanthine] | 61.2 ± 3.26 | -5.74 | 2.792 kcal/mol | -7.851 | -1.78 | δ(ΔG0) (TvxNT3; listed as hypoxanthine): 1.34 kcal/mol; remaining activity at 100 µM (TvxNT3): < 25%
OC[C@H]1O[C@@H](n2cnc3cncnc32)[C@H](O)[C@@H]1O [Nebularine] |  |  |  | -7.27 | -0.703 | δ(ΔG0) (TvxNT3; listed as nebularine): 0.693 kcal/mol
Nc1ncnc2c1c(-c1ccccc1)cn2C1OC(CO)C(O)C1O (centres unmarked) [TH1012, 7-phenyltubercidin] | 146 ± 58 | -5.23 |  |  |  | 
Cc1cn([C@H]2C[C@H](O)[C@@H](CO)O2)c(=O)[nH]c1=O [Thymidine] | 434 ± 46.4 | -4.59 | 4.113 kcal/mol | -4.391 | -3.587 | Ki (TcoAT1; listed as TMD): 49.6 µM; Ki [1]: 44 ± 10 µM; Ki [2]: 94.6 ± 11.5 µM; ΔG0, Gibbs free energy of interaction [2]: -5.5 kcal/mol; Ki values fold higher than those for the purines [2]: > 90 fold
O=c1ccn([C@@H]2O[C@H](CO)[C@@H](O)[C@H]2O)c(=O)[nH]1 [Uridine] | 1470 ± 172 | -3.87 | 4.835 kcal/mol | -4.285 | -3.693 | Ki (TcoAT1; listed as URD): 147 µM; Ki [1]: 830 ± 86 µM; Tbb P1 ΔG0 [1]: -4.47 kcal/mol; Ki [2]: 390 ± 9.1 µM; ΔG0, Gibbs free energy of interaction [2]: -4.64 kcal/mol; Ki values fold higher than those for the purines [2]: > 90 fold
NCCS[As](SCCN)c1ccc(Nc2nc(N)nc(N)n2)cc1 [melarsomine, reference compound] |  |  |  |  |  | EC50 (L. mexicana SUPKO+TcoAT1; resazurin, promastigotes): > 100 µM; EC50 (L. mexicana SUPKO; [4]): > 100 µM; EC50 (L. mexicana SUPKO+TvxNT3; resazurin, promastigotes): > 100 µM; EC50 (L. mexicana Cas9; resazurin, promastigotes): > 100 µM
Cc1ccc(C(=O)Nc2ccc(S(=O)(=O)O)c3cc(S(=O)(=O)O)cc(S(=O)(=O)O)c23)cc1NC(=O)c1cccc(NC(=O)Nc2cccc(C(=O)Nc3cc(C(=O)Nc4ccc(S(=O)(=O)O)c5cc(S(=O)(=O)O)cc(S(=O)(=O)O)c45)ccc3C)c2)c1 [suramin, reference compound] |  |  |  |  |  | EC50 (L. mexicana SUPKO+TcoAT1; Leishmania mexicana): > 100 µM; EC50 (L. mexicana SUPKO; Leishmania mexicana, read-out: SUPKO EC50, resazurin, promastigotes): > 100 µM; EC50 (L. mexicana SUPKO+TvxNT3; Leishmania mexicana): > 100 µM; EC50 (L. mexicana Cas9; Leishmania mexicana): > 100 µM
